Where two headings read alike, the source gives them in different places.
Assays:
[1] = test system: Akt phosphorylated at Ser473 in PC-3 cells; assay: Cellular assay: phosphorylation of Akt at Ser473 in PC-3 cells (MSD ELISA); type: cell-based; details: PC-3 cells, 60 min compound incubation, MSD ELISA, read-out: IC50 pAkt_S473
How it was run: (§1)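 After lysis of treated cells (60 min, 37° C, 0.3% DMSO), phospho-Akt levels were measured by MSD electrochemiluminescence ELISA. Potency was derived from concentration-response curves fitted over five concentrations.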

kinase enzymes [2] = target: T1, kinase enzymes (Homo sapiens, UniProt P42345); assay: Enzyme binding assay (KINOMEscan, DiscoveRx), further kinases of Table A; details: MTOR_h
T1 construct: purchased DiscoveRx Corporation, San Diego (contract service, KINOMEscan)
How it was run: (§2)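 Binding affinities were measured on the KINOMEscan platform.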

kinase enzymes [3] = target: T2, kinase enzymes (Homo sapiens, UniProt P42336); assay: as above; details: PIK3Cα_h
T2 construct: purchased DiscoveRx Corporation, San Diego (contract service, KINOMEscan)
T2 sequence (P42336 whole entry): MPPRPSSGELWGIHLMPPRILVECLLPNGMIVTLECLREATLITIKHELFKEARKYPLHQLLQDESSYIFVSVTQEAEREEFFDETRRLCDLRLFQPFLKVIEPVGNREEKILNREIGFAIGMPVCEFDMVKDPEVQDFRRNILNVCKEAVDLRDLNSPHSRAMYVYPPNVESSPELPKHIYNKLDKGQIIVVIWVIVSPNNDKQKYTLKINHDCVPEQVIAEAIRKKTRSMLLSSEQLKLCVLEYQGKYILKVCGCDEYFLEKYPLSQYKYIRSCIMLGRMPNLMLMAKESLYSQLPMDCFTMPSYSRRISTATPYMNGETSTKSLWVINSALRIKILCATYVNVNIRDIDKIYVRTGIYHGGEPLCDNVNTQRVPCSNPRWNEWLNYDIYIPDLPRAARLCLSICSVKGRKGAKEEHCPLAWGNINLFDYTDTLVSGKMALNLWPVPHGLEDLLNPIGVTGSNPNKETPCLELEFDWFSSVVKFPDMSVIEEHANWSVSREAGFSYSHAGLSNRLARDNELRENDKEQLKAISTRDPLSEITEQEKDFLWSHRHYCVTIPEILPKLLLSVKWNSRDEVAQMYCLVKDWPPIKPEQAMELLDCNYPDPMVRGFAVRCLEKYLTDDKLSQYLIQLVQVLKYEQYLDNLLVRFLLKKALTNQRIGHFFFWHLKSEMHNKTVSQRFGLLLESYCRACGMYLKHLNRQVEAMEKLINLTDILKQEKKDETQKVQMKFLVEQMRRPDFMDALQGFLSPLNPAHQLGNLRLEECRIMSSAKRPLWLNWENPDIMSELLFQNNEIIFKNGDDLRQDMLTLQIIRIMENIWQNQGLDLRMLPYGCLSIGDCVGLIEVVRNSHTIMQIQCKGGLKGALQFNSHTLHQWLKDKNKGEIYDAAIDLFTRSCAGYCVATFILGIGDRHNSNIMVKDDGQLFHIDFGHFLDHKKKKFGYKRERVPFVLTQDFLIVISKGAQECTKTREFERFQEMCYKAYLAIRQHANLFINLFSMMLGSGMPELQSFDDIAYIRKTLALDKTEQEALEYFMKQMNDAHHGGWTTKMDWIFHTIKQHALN
How it was run: as §2

kinase enzymes [4] = target: T3, kinase enzymes (Homo sapiens, UniProt P48736); assay: as above; details: PIK3Cγ_h
T3 construct: purchased DiscoveRx Corporation, San Diego (contract service, KINOMEscan)
T3 sequence (P48736 whole entry): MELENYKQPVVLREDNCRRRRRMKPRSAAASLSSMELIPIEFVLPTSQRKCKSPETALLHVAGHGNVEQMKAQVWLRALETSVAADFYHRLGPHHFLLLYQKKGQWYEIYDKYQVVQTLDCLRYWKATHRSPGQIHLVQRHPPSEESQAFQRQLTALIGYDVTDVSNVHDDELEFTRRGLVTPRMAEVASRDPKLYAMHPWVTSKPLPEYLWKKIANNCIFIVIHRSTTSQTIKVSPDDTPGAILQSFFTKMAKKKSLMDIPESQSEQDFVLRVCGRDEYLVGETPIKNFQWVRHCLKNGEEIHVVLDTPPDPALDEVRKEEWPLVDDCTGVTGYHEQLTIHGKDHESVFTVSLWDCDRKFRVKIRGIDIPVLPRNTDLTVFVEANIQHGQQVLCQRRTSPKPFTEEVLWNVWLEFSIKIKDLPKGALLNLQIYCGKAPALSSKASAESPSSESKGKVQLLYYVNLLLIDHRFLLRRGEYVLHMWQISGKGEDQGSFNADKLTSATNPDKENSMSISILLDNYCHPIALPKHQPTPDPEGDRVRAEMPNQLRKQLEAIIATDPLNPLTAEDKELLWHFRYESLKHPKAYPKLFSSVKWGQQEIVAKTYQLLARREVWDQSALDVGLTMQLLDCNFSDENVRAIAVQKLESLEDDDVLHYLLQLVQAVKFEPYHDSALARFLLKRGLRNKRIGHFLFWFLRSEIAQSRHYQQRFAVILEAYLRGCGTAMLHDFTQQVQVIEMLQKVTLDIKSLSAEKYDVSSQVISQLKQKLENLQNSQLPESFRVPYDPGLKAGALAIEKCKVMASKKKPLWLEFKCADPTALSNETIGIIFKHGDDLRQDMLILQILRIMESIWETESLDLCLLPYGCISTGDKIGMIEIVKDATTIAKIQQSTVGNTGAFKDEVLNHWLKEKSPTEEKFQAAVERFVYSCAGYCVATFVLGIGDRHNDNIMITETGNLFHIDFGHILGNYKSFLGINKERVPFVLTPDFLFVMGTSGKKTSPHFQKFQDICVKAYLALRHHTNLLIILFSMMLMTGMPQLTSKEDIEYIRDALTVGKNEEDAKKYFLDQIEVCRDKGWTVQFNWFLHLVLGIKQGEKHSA
How it was run: as §2

PI3Kδ = target: T4, PI3Kδ (Homo sapiens, UniProt O00329); assay: Enzyme binding assay (KINOMEscan, DiscoveRx); details: PIK3Cδ_h
T4 construct: purchased DiscoveRx Corporation, San Diego (contract service, KINOMEscan)
T4 sequence (O00329 1-1044): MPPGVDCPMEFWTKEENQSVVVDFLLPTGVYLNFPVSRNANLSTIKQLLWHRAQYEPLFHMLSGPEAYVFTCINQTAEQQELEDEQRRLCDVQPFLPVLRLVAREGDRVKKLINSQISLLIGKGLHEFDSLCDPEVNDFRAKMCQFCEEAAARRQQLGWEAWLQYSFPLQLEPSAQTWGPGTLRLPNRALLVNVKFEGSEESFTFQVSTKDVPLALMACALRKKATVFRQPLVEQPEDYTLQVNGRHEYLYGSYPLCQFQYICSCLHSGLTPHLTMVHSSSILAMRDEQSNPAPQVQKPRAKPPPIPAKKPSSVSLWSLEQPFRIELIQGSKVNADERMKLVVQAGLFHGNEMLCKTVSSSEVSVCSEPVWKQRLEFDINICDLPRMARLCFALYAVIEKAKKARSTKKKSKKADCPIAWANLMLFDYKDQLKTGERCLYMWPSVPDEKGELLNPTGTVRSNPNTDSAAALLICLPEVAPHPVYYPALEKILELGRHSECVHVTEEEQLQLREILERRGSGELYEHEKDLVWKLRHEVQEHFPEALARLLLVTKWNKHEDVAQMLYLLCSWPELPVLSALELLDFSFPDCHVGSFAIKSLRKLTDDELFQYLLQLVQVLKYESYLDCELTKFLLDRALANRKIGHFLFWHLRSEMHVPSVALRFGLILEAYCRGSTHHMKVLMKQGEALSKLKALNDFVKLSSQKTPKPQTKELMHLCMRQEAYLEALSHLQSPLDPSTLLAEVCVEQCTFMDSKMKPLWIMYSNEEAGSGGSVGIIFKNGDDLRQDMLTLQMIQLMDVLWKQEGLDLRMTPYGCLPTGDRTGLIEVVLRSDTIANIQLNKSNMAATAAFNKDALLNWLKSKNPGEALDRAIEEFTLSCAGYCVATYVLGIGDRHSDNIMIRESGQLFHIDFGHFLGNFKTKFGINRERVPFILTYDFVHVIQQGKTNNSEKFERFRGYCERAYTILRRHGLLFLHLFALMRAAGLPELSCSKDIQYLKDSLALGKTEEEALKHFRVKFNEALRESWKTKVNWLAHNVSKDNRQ
How it was run: as §2

PI3Kβ = target: T5, PI3Kβ (Homo sapiens, UniProt P42338); assay: Enzyme binding assay (KINOMEscan, DiscoveRx); details: PIK3Cβ_h, read-out: Kd PIK3Cβ_h
T5 construct: purchased DiscoveRx Corporation, San Diego (contract service, KINOMEscan)
T5 sequence (P42338 whole entry): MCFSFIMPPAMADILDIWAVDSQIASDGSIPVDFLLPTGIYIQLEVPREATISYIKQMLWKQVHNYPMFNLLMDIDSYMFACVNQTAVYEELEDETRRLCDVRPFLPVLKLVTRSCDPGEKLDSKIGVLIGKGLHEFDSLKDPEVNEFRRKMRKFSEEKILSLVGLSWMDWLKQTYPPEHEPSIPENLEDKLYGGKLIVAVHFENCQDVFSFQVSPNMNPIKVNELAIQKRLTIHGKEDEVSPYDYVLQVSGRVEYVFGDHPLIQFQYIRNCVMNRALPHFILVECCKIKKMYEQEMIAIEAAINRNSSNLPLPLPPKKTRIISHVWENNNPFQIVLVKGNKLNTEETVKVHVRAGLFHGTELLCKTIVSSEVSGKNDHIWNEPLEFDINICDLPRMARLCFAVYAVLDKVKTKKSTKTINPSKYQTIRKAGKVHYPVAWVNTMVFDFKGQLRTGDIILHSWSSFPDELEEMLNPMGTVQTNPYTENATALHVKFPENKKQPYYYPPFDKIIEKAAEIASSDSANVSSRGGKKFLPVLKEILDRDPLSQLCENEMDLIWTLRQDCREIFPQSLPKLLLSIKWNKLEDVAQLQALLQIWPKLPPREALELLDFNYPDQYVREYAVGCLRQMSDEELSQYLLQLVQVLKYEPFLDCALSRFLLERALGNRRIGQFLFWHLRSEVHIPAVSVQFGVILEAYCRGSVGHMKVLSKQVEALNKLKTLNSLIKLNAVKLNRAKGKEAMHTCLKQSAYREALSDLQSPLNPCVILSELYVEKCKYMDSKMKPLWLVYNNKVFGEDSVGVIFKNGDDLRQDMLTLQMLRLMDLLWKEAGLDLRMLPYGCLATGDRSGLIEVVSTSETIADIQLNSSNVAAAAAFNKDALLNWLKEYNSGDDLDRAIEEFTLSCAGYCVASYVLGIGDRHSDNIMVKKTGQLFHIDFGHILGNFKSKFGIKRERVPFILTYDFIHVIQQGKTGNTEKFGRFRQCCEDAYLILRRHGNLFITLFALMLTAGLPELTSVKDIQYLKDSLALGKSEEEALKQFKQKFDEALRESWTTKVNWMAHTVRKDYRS
How it was run: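 Kinase binding affinities were measured with KINOMEscan technology. Results are given as Kd, the inhibitor binding constant, in nM.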

[5] = test system: Akt phosphorylated at Thr308 in PC-3 cells; assay: Cellular assay: phosphorylation of Akt at Thr308 in PC-3 cells (MSD ELISA); type: cell-based; details: PC-3 cells, 60 min compound incubation, MSD ELISA, read-out: IC50 pAkt_Thr308
How it was run: as §1

SMILES	IC50 ([1]; Homo sapiens, PC-3, 1 h)	Kd (kinase enzymes [2])	Kd (kinase enzymes [3])	Kd (kinase enzymes [4])	Kd (PI3Kδ)	melting point	Kd (PI3Kβ)	IC50 ([5]; Homo sapiens, PC-3, 1 h)	IC50 [1]	IC50 [5]
NCc1cc(C2CCCN2c2cc(F)cc(F)c2)c2nc(N3CCOCC3)cnc2c1 (centres unmarked) [Compound 96]	25 nM	17400 nM	363 nM	302 nM	83 nM	80 °C	0.4 nM	20 nM		
CC(Nc1cccc(C#N)c1)c1cc(C(=O)N2CCOCC2)cc2ncc(N3CCOCC3)nc12 (centres unmarked) [Compound 131]	501 nM	> 30200 nM	3160 nM	20000 nM	2510 nM	80 °C	11 nM	363 nM		
CC(Nc1cc(F)cc(F)c1)c1cc(C(=O)N2CCN(CC(F)(F)F)CC2)cc2ncc(N3CCOCC3)nc12 (single isomer, unassigned) [Compound 172]	> 513 nM	> 30200 nM	> 30200 nM	> 30200 nM	> 30200 nM	130 °C	1260 nM	> 513 nM		
CCN1CCN(C(=O)c2cc(C3CCCN3c3cc(F)cc(F)c3)c3nc(N4CCOCC4)cnc3c2)CC1 (centres unmarked) [Compound 142]	10 nM	> 30200 nM	209 nM	741 nM	59 nM	80 °C	0.5 nM	7 nM		
COc1cccc(NC(C)c2cc(C(=O)N3CCOCC3)cc3ncc(N4CCOCC4)nc23)c1 (centres unmarked) [Compound 121]	347 nM	> 30200 nM	5370 nM	> 30200 nM	1590 nM	80 °C	10 nM	~331 nM		
CC(Nc1cc(F)cc(F)c1)c1cc(CNCC(F)(F)F)cc2ncc(N3CCOCC3)nc12 (single isomer, unassigned) [Compound 162]		> 30200 nM	3980 nM	24500 nM	1230 nM	80 °C	9 nM		209 nM	91 nM
O=C(c1cc(C2CCCN2c2cc(F)cc(F)c2)c2nc(N3CCOCC3)cnc2c1)N1CC2(C1)CS(=O)(=O)C2 (centres unmarked) [Compound 34]	< 0.8 nM	> 30200 nM	50 nM	933 nM	30 nM	160 °C	0.4 nM	3 nM		
CC(Nc1cc(F)cc(F)c1)c1cc(C(=O)N(C)C)cc2ncc(N3CCOCC3)nc12 (single isomer, unassigned) [Compound 13]		> 30200 nM	23900 nM	> 30200 nM	5890 nM	217 °C	182 nM		> 513 nM	> 513 nM
CC(Nc1cc(F)cc(F)c1)c1cc(C(=O)N(C)CCO)cc2ncc(N3CCOCC3)nc12 (centres unmarked) [Compound 145]	~32 nM	23400 nM	537 nM	1860 nM	102 nM	80 °C	1 nM	9 nM		
CC(Nc1cc(F)cc(F)c1)c1cc(C=NO)cc2ncc(N3CCOCC3)nc12 (single isomer, unassigned) [Compound 225]	102 nM	> 30200 nM	4680 nM	2510 nM	537 nM	80 °C	6 nM	87 nM		
CC1CN(c2cnc3cc(C(=O)N(C)C)cc(C(C)Nc4cccc(F)c4)c3n2)CCO1 (centres unmarked) [Compound 136]	178 nM	15100 nM	2340 nM	5130 nM	355 nM	184 °C	3 nM	65 nM		
CC(Nc1cc(F)cc(F)c1)c1cc(C2=NC(C)(C)CO2)cc2ncc(N3CCOCC3)nc12 (centres unmarked) [Compound 186]	339 nM	> 30200 nM	6310 nM	27500 nM	1780 nM	80 °C	10 nM	182 nM		
O=C(c1cc(C2CCCN2c2cc(F)cc(F)c2)c2nc(N3CCOCC3)cnc2c1)N1CCC1 (single isomer, unassigned) [Compound 33]		> 30200 nM	58 nM	389 nM	47 nM	280 °C	1 nM		3 nM	4 nM
COCCNC(=O)c1cc(C(C)Nc2cc(F)cc(F)c2)c2nc(N3CCOCC3)cnc2c1 (single isomer, unassigned) [Compound 204]		> 30200 nM	> 30200 nM	14500 nM	> 30200 nM	80 °C	1070 nM		> 513 nM	> 513 nM

Results, then the molecule that gave them:

IC50 ([1]; Homo sapiens, PC-3, 1 h)	Kd (kinase enzymes [2])	Kd (kinase enzymes [3])	Kd (kinase enzymes [4])	Kd (PI3Kδ)	melting point	Kd (PI3Kβ)	IC50 ([5]; Homo sapiens, PC-3, 1 h)	IC50 [1]	IC50 [5]	SMILES
7 nM	23400 nM	832 nM	1820 nM	68 nM	100 °C	0.2 nM	6 nM			CNCCNC(=O)c1cc(C(C)Nc2cccc(F)c2)c2nc(N3CCOCC3)cnc2c1 (centres unmarked) [Compound 282]
	22900 nM	6030 nM	6310 nM	1780 nM	124 °C	42 nM		> 513 nM	> 513 nM	CC(Nc1ccc(F)c(F)c1)c1cc(C(=O)NCC2CCCN2)cc2ncc(N3CCOCC3)nc12 (single isomer, unassigned) [Compound 329b]
~275 nM	> 30200 nM	1480 nM	8910 nM	331 nM	53 °C	3 nM			~132 nM	CC(Oc1cc(F)cc(F)c1)c1cc(C(=O)N(C)C)cc2ncc(C3=CCOCC3)nc12 (single isomer, unassigned) [Compound 403a]
23 nM	7080 nM	1230 nM	7940 nM	234 nM	172 °C	1 nM	6 nM			Cc1c(F)cccc1CNc1cc(C(=O)NCCN(C)C)cc2ncc(N3CCOCC3)nc12 [Compound 383]
	> 30200 nM	1780 nM	3800 nM	339 nM	80 °C	1 nM		27 nM	20 nM	CC(C)NCCNC(=O)c1cc(C(C)Nc2cccc(F)c2)c2nc(N3CCOCC3)cnc2c1 (single isomer, unassigned) [Compound 227]
	> 30200 nM	> 30200 nM	> 30200 nM	17400 nM	54 °C	3160 nM		> 513 nM	> 513 nM	CC(Oc1cc(F)cc(F)c1)c1cc(C(=O)N(C)C)cc2ncc(C3=CCOCC3)nc12 (single isomer, unassigned) [Compound 403b]
	> 30200 nM	> 30200 nM	> 30200 nM	15500 nM	80 °C	550 nM		> 513 nM	> 513 nM	CN[C@H]1CCN(C(=O)c2cc(C(C)Oc3ccc(F)c(F)c3)c3nc(N4CCOCC4)cnc3c2)C1 (single isomer, unassigned) [Compound 370b]
> 513 nM	> 30200 nM	2690 nM	22900 nM	661 nM	70 °C	36 nM	> 513 nM			CN(C)C(=O)c1cc(N2CCC2c2ccc(F)cc2)c2nc(N3CCOCC3)cnc2c1 (centres unmarked) [Compound 397]
